The series concerns GENE-TOX genotoxicity assays, various organisms and cells. Briefly: GENE-TOX mutagenicity studies. The settings on record: for call: Assay Type: In vivo carcinogenicity studies.
The mark [1] stands for this setting: Species/Cell Type: Salmonella typhimurium (one or more of the five standard strains: TA98, TA100, TA1535, TA1537, and TA1538), Assay Type: Histidine reverse gene mutation, Ames assay, Assay Code: SAL+, Evaluation Type: Evaluation A (Pre-1980).
[2] abbreviates: Species/Cell Type: Mammalian polychromatic erythrocytes, Assay Type: Micronucleus test, chromosome aberrations, Assay Code: MNTT, Evaluation Type: Evaluation B (Post-1980).
The mark [3] stands for this setting: Species/Cell Type: Nonhuman, Assay Type: Sister-chromatid exchange (SCE) in vitro, Assay Code: SC2+, Evaluation Type: Evaluation B (Post-1980).
Where [4] appears, read: Species/Cell Type: Salmonella typhimurium (one or more of the five standard strains: TA98, TA100, TA1535, TA1537, and TA1538), Assay Type: Histidine reverse gene mutation, Ames assay, Assay Code: SALT, Evaluation Type: Evaluation A (Pre-1980).
Where [5] appears, read: Species/Cell Type: Chinese hamster ovary (CHO) cells, Assay Type: Forward gene mutation at the HPRT locus, Assay Code: CHO+, Evaluation Type: Evaluation B (Post-1980).
Setting [6] is: Species/Cell Type: Salmonella typhimurium (one or more of the five standard strains: TA98, TA100, TA1535, TA1537, and TA1538), Assay Type: Histidine reverse gene mutation, Ames assay, Assay Code: SAL+*, Activation: With metabolic activation, Evaluation Type: Evaluation A (Pre-1980).

In PubChem BioAssay AID1259408 (Genetic Toxicology Data Bank (GENE-TOX), 2018) one finds mutagenic call and call data, which are given here for 23 compounds.

Structures are written as SMILES. Activity calls are given as the source filed them. How the calls were made is not given here.

Take `COP(=O)(OC)C(O)C(Cl)(Cl)Cl` (stereo not given): the mutagenic call reads like this: (Species/Cell Type: Bacillus subtilis (H17 vs M45), Assay Type: Rec-assay, spot test, DNA effects (bacterial DNA repair), Assay Code: REWT, Evaluation Type: Evaluation A (Pre-1980)) “no conclusion”; (Species/Cell Type: Drosophila melanogaster, Assay Type: Sex-linked recessive lethal gene mutation, Assay Code: SRL-, Evaluation Type: Evaluation A (Pre-1980)) “inactive; negative”; (Species/Cell Type: Escherichia coli WP2 UVRA, Assay Type: Tryptophan reverse gene mutation, Assay Code: WPU+D, Dose Response: With dose response, Evaluation Type: Evaluation A (Pre-1980)) “active; positive”; (Species/Cell Type: Escherichia coli polA (W3119 vs P3478), Assay Type: Rec-assay, DNA effects (bacterial DNA repair), Assay Code: RE1T, Evaluation Type: Evaluation A (Pre-1980)) “no conclusion”; (Species/Cell Type: Human diploid fibroblasts, Assay Type: Unscheduled DNA synthesis (UDS) in vitro, DNA effects, Assay Code: UDH+/-*, Activation: With metabolic activation, Evaluation Type: Evaluation A (Pre-1980)) “inactive; positive without activation, negative with activation”; (Species/Cell Type: Mammalian polychromatic erythrocytes, Assay Type: Micronucleus test, chromosome aberrations, Assay Code: MNTT, Evaluation Type: Evaluation A (Pre-1980)) “no conclusion”. The mutagenic call was “active; positive” (Species/Cell Type: Nonhuman, Assay Type: Sister-chromatid exchange (SCE) in vitro, Assay Code: SC2+D*, Activation: With metabolic activation, Dose Response: With dose response, Evaluation Type: Evaluation B (Post-1980)); “active; positive” (Species/Cell Type: Saccharomyces cerevisiae, Assay Type: Mitotic recombination or gene conversion, Assay Code: YEH+, Evaluation Type: Evaluation A (Pre-1980)); “active; positive” under setting [1]; “active; positive” (Species/Cell Type: Salmonella typhimurium, Assay Type: Forward and reverse gene mutation, body fluid assay, Assay Code: BFU+, Evaluation Type: Evaluation A (Pre-1980)).

For the compound `CNc1ccc(N(CCO)CCO)cc1[N+](=O)[O-]`, the mutagenic call reads like this: under setting [2], “no conclusion”; (Species/Cell Type: Nonhuman, Assay Type: Sister-chromatid exchange (SCE) in vitro, Assay Code: SC2+D, Dose Response: With dose response, Evaluation Type: Evaluation B (Post-1980)) “active; positive”. The call (Species/Cell Type: Nonhuman, Assay Code: CCG+, Evaluation Type: Evaluation A (Pre-1980)) was “active; positive”.

For `CN(C)c1ccc(N=NS(=O)(=O)O)cc1`, the mutagenic call (Species/Cell Type: Bacillus subtilis (H17 vs M45), Assay Type: Rec-assay, spot test, DNA effects (bacterial DNA repair), Assay Code: REW+, Evaluation Type: Evaluation A (Pre-1980)) was “active; positive”; the mutagenic call (Species/Cell Type: Escherichia coli WP2, Assay Type: Tryptophan reverse gene mutation, Assay Code: WP2+, Evaluation Type: Evaluation A (Pre-1980)) is “active; positive”; the mutagenic call (Species/Cell Type: Escherichia coli WP2 UVRA, Assay Type: Tryptophan reverse gene mutation, Assay Code: WPU+, Evaluation Type: Evaluation A (Pre-1980)) is “active; positive”; the mutagenic call (Species/Cell Type: Human lymphocytes, Assay Type: Sister-chromatid exchange (SCE) in vitro, Assay Code: SCL+D, Dose Response: With dose response, Evaluation Type: Evaluation B (Post-1980)) was “active; positive”; the mutagenic call (Species/Cell Type: Human, Assay Type: Sister-chromatid exchange (SCE) in vitro, Assay Code: SC1+D, Dose Response: With dose response, Evaluation Type: Evaluation B (Post-1980)) is “active; positive”; the mutagenic call under setting [3] is “active; positive”. The mutagenic call under setting [1] was “active; positive”. Further, the call (Species/Cell Type: Nonhuman, Assay Code: CCG-, Evaluation Type: Evaluation A (Pre-1980)) is “inactive; negative”.

Consider `CC1CN(N=O)C(=O)NC1=O` (stereo not given), for which the mutagenic call under setting [1] was “active; positive”.

As to `O=P(OCCCl)(OCCCl)OCCCl`, the mutagenic call runs as follows: (Species/Cell Type: Mammalian polychromatic erythrocytes, Assay Type: Micronucleus test, chromosome aberrations, Assay Code: MNT+, Evaluation Type: Evaluation B (Post-1980)) “active; positive”; (Species/Cell Type: Salmonella typhimurium (one or more of the five standard strains: TA98, TA100, TA1535, TA1537, and TA1538), Assay Type: Histidine reverse gene mutation, Ames assay, Assay Code: SAL-, Evaluation Type: Evaluation A (Pre-1980)) “inactive; negative”.

Take `NC(Cc1ccc(F)cc1)C(=O)O` (stereo not given): the mutagenic call runs as follows: (Species/Cell Type: Aspergillus nidulans, Assay Type: Aneuploidy, chromosome aberrations, Assay Code: ASN+, Evaluation Type: Evaluation A (Pre-1980)) “active; positive”; (Species/Cell Type: Aspergillus nidulans, Assay Type: Mitotic recombination, Assay Code: ASG-, Evaluation Type: Evaluation A (Pre-1980)) “inactive; negative”; (Species/Cell Type: Neurospora crassa, Assay Type: Aneuploidy, chromosome aberrations, Assay Code: NEN+, Evaluation Type: Evaluation A (Pre-1980)) “active; positive”; (Species/Cell Type: Saccharomyces cerevisiae, Assay Type: Aneuploidy, chromosome aberrations, Assay Code: YEN+, Evaluation Type: Evaluation A (Pre-1980)) “active; positive”; (Species/Cell Type: Saccharomyces cerevisiae, Assay Type: Forward gene mutation, Assay Code: YEF+, Evaluation Type: Evaluation A (Pre-1980)) “active; positive”; (Species/Cell Type: Saccharomyces cerevisiae, Assay Type: Mitotic recombination or gene conversion, Assay Code: YEC+, Evaluation Type: Evaluation A (Pre-1980)) “active; positive”. For the same compound, under “Species/Cell Type: Saccharomyces cerevisiae, Assay Type: Reverse gene mutation, Assay Code: YER+, Evaluation Type: Evaluation A (Pre-1980)”, the mutagenic call was “active; positive”.

As to `CC(=O)[O-].CC(=O)[O-].[Hg+2]`, the mutagenic call runs as follows: (Species/Cell Type: Mammalian oocytes or early embryo, Assay Type: Chromosome aberrations in vivo, Assay Code: CYO-, Evaluation Type: Evaluation A (Pre-1980)) “inactive; negative”; (Species/Cell Type: Nonhuman, Assay Type: Sister-chromatid exchange (SCE) in vitro, Assay Code: SC2-, Evaluation Type: Evaluation B (Post-1980)) “inactive; negative”.

As to `Oc1cc2cccc3ccc4c5ccccc5cc1c4c32`, the mutagenic call reads like this: (Species/Cell Type: Chinese hamster lung (V79) cells, Assay Type: Forward gene mutation at the HPRT or ouabain locus, Assay Code: V79-, Evaluation Type: Evaluation A (Pre-1980)) “inactive; negative”; under setting [4], “no conclusion”. Further, the call (Species/Cell Type: Nonhuman, Assay Code: CCGT, Evaluation Type: Evaluation A (Pre-1980)) is reported as “no conclusion”.

With `CCN(CCNc1ccc(CO)c2sc3ccccc3c(=O)c12)CC(C)(C)O`, under “Species/Cell Type: Mouse lymphoma (L5178Y) cells, Assay Type: Forward gene mutation at the thymidine kinase (TK) locus, chromosome aberrations, Assay Code: L51+, Evaluation Type: Evaluation A (Pre-1980)”, the mutagenic call is “active; positive”.

Take `O=S(=O)(O)c1ccccc1/C=C\c1ccc(-c2ccc(/C=C\c3ccccc3S(=O)(=O)O)cc2)cc1`: the mutagenic call is, setting by setting: (Species/Cell Type: Rodents, Sex: Male, Assay Type: Dominant lethal test, Assay Code: DLT-, Evaluation Type: Evaluation A (Pre-1980)) “inactive; negative”; (Species/Cell Type: Saccharomyces cerevisiae, Assay Type: Mitotic recombination or gene conversion, Assay Code: YECT, Evaluation Type: Evaluation A (Pre-1980)) “no conclusion”; under setting [4], “no conclusion”.

Consider `CCCCOc1ccc(CC(=O)NN)cc1CN(CC)CC`, for which the mutagenic call (Species/Cell Type: Saccharomyces cerevisiae, Assay Type: Reverse gene mutation, Assay Code: YERT, Evaluation Type: Evaluation A (Pre-1980)) was “no conclusion”.

In the case of `ClCCNCCCNc1c2ccccc2nc2ccccc12`, the mutagenic call under setting [5] was “active; positive”.

`c1cncc([C@@H]2CCCN2)c1`: the mutagenic call under setting [3] is “active; positive”.

`O=c1cccc2cc(O)c(O)c(O)c2c1O`: under “Species/Cell Type: Allium cepa, Assay Type: Chromosome aberrations, Assay Code: ALC-, Evaluation Type: Evaluation A (Pre-1980)”, the mutagenic call was “inactive; negative”.

Regarding `COc1ccc2nc3cc(Cl)ccc3c(NCCNCCCl)c2c1`, under setting [5], the mutagenic call is “active; positive”.

Regarding `C/C=C/C1=CN2C(=O)c3cc(O[C@@H]4O[C@@H](C)[C@H](NC)[C@@](C)(O)[C@H]4O)c(C)c(O)c3N[C@H](O)[C@@H]2C1`, the mutagenic call (Species/Cell Type: Mammalian polychromatic erythrocytes, Assay Type: Micronucleus test, chromosome aberrations, Assay Code: MNT+U, Dose Response: Unconfirmed positive response, Evaluation Type: Evaluation B (Post-1980)) was “active; positive”.

For the compound `CCCCCN(CCCC)N=O`, the mutagenic call under setting [6] is “active; positive”.

Take `Nc1ccc(OCCO)c(N)c1`: under setting [2], the mutagenic call is reported as “no conclusion”.

For the compound `O[C@@H]1c2ccc3cc4ccccc4cc3c2[C@@H]2OC2[C@@H]1O` (stereo not given in full), the mutagenic call (Species/Cell Type: Chinese hamster lung (V79) cells, Assay Type: Forward gene mutation at the HPRT or ouabain locus, Assay Code: V79+, Evaluation Type: Evaluation A (Pre-1980)) was “active; positive”.

Turning to `CC(=O)[O-].[Tl+]`, for the setting “Species/Cell Type: Syrian hamster embryo (SA7/SHE) cells, Assay Type: Cell transformation, viral enhanced, Assay Code: CT7+, Evaluation Type: Evaluation A (Pre-1980)”, the mutagenic call is “active; positive”.

On to `c1ccncc1`, for which the mutagenic call under setting [2] was “no conclusion” and the mutagenic call (Species/Cell Type: Nonhuman, Assay Type: Sister-chromatid exchange (SCE) in vitro, Assay Code: SC2+D, Dose Response: With dose response, Evaluation Type: Evaluation A (Pre-1980)) was “active; positive”.

As to `NC(=O)N1c2ccccc2C=Cc2cc(O)ccc21`, the mutagenic call reads like this: (Species/Cell Type: Human lymphocytes, Assay Type: Sister-chromatid exchange (SCE) in vitro, Assay Code: SCLT, Evaluation Type: Evaluation B (Post-1980)) “no conclusion”; (Species/Cell Type: Human, Assay Type: Sister-chromatid exchange (SCE) in vitro, Assay Code: SC1T, Evaluation Type: Evaluation B (Post-1980)) “no conclusion”.

Regarding `Cc1ccc2c(ccc3c4ccccc4ccc23)c1`, under setting [6], the mutagenic call was “active; positive”.
